Experimental findings from patent EP3807270B1, “NOVEL HETEROARYL HETEROCYCLYL COMPOUNDS FOR THE TREATMENT OF AUTOIMMUNE DISEASE” (F. Hoffmann-La Roche AG, priority 2018, dated 2019) are described below.

In this test the target is T1, hTLR7 (Homo sapiens, UniProt Q9NYK1).
T1 sequence (Q9NYK1 27-1049): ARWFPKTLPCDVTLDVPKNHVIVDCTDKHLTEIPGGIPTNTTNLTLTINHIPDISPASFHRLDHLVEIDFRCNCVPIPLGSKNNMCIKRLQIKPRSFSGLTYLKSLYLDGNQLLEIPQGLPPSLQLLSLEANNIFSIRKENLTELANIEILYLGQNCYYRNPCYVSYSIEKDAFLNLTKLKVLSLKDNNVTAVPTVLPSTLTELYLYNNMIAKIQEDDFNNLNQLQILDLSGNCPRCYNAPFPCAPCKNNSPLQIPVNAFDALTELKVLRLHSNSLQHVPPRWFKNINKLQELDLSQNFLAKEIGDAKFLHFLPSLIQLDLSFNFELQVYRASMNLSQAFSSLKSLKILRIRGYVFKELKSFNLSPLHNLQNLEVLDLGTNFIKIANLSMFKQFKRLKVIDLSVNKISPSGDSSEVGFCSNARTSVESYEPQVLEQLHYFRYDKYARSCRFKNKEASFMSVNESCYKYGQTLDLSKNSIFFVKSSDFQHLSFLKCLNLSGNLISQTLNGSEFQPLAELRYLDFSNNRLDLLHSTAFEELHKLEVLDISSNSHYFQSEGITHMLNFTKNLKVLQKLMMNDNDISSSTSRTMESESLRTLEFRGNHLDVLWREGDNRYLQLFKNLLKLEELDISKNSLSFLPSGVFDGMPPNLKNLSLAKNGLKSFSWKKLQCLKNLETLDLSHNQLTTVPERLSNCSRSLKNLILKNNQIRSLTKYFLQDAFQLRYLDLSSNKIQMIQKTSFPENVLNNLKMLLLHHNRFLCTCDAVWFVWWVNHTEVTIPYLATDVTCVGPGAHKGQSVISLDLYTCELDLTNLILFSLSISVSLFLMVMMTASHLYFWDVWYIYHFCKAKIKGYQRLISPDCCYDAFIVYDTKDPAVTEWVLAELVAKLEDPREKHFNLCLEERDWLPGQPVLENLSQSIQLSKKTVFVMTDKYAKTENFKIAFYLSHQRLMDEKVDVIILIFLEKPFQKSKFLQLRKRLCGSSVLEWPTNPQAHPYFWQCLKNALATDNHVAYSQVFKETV
In words: HEK293-Blue-hTLR-7 cells assay (SEAP reporter, R848 stimulation). The class given is cell-based. The arrangement: host or cells: HEK293 (HEK-Blue). Particulars: HEK293-Blue-hTLR7 cells, R848, 20 hrs; read-out: HEK/hTLR7 IC50. The procedure, abridged: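 HEK293-Blue cells stably expressing human TLR7 with an NF-κB/AP-1-driven SEAP reporter were treated with serially diluted compound (1% DMSO final) plus R848 for 20 h at 37 °C. Supernatant SEAP activity was measured with QUANTI-Blue substrate after 2 h at 37 °C, with absorbance read at 620-655 nm.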

In the case of `C[C@@H]1CN(c2ccc(C#N)c3ncccc23)C[C@H](CN2CC3[C@H](C2)OCCN3c2ccc3c(n2)CCNC3)O1` (stereo in doubt) [Example 53, cis-5-[(2R,6S)-2-methyl-6-[[4-(5,6,7,8-tetrahydro-1,6-naphthyridin-2-yl)-2,3,4a,5,7,7a-hexahydropyrrolo[3,4-b][1,4]oxazin-6-yl]methyl]morpholin-4-yl]quinoline-8-carbonitrile], the IC50 was 3 nM.

As for `C[C@@H]1CN(c2ccc(C#N)c3nccnc23)C[C@H](CN2CCN(c3cc4c(cn3)[C@H](C)NCC4)CC2)O1` (single isomer, unassigned) [Example 85], the IC50 came out at 5 nM.

Take `C[C@@H]1CN(c2ccc(C#N)c3ncccc23)C[C@H](CN2CCN(c3nccc4c3CCNC4)CC2)O1` [Example 62, 5-[(2R,6S)-2-methyl-6-[[4-(5,6,7,8-tetrahydro-2,6-naphthyridin-1-yl)piperazin-1-yl]methyl]morpholin-4-yl]quinoline-8-carbonitrile]: the IC50 was < 3 nM.

Take `C[C@@H]1CN(c2ccc(C#N)c3ncccc23)C[C@H](CN2CCN(c3ccc4c(n3)CCNC4)C[C@@H](O)C2)O1` (single isomer, unassigned) [Example 35B]: the IC50 stood at 61 nM.

On to `C[C@@H]1CN(c2ccc(C#N)n3ncc(F)c23)C[C@H](CN2CCN(c3cnc4c(c3)CNC4)CC2)O1` [Example 26, 4-[(2S,6R)-2-[[4-(6,7-dihydro-5H-pyrrolo[3,4-b]pyridin-3-yl)piperazin-1-yl]methyl]-6-methyl-morpholin-4-yl]-3-fluoro-pyrazolo[1,5-a]pyridine-7-carbonitrile], for which the IC50 was 39 nM.

With `C[C@@H]1CN(c2ccc(C#N)c3nccnc23)C[C@H](CN2CCN(c3ccc4c(n3)CN[C@H]4C)CC2)O1` (single isomer, unassigned) [Example 78], the IC50 was 5 nM.

As to `C[C@@H]1CN(c2ccc(C#N)c3ncccc23)C[C@H](CN2CCN(c3cc4c(cn3)C[C@H](C)NC4)CC2)O1` (single isomer, unassigned) [Example 76], the IC50 was 14 nM.

As for `C[C@@H]1CN(c2ccc(C#N)c3ncccc23)C[C@H](CN2CCN(c3cnc4c(c3)CCNC4)CC2)O1` [Example 23, 5-[(2R,6S)-2-methyl-6-[[4-(5,6,7,8-tetrahydro-1,7-naphthyridin-3-yl)piperazin-1-yl]methyl]morpholin-4-yl]quinoline-8-carbonitrile], the IC50 came out at 59 nM.

In the case of `C[C@@H]1CN(c2ccc(C#N)c3ncccc23)C[C@H](CN2CCCN(c3ncc4c(n3)CCNC4)CC2)O1` [Example 39, 5-[(2R,6S)-2-methyl-6-[[4-(5,6,7,8-tetrahydropyrido[4,3-d]pyrimidin-2-yl)-1,4-diazepan-1-yl]methyl]morpholin-4-yl]quinoline-8-carbonitrile], the IC50 worked out at 8 nM.

Take `C[C@@H]1CN(c2ccc(C#N)c3ncccc23)C[C@H](CN2CCN(c3ncc4c(n3)CCNC4)CC2)O1` [Example 29, 5-[(2R,6S)-2-methyl-6-[[4-(5,6,7,8-tetrahydropyrido[4,3-d]pyrimidin-2-yl)piperazin-1-yl]methyl]morpholin-4-yl]quinoline-8-carbonitrile]: the IC50 is 11 nM.

Regarding `C[C@@H]1CN(c2ccc(C#N)c3nccnc23)C[C@H](CN2CCN(c3ccc4c(n3)CN[C@@H]4C)CC2)O1` (single isomer, unassigned) [Example 79], the IC50 turned out to be 8 nM.

Take `C[C@@H]1CN(c2ccc(C#N)c3ncccc23)C[C@H](CN2CCN(c3ccc4c(n3)CCNC4)CC2)O1` [Example 14, 5-[(2R,6S)-2-methyl-6-[[4-(5,6,7,8-tetrahydro-1,6-naphthyridin-2-yl)piperazin-1-yl]methyl]morpholin-4-yl]quinoline-8-carbonitrile]: the IC50 worked out at 11 nM.

With `C[C@@H]1CN(c2ccc(C#N)c3ncccc23)C[C@H](CN2CCN(c3ccc4c(c3)CN(CCO)C4)CC2)O1` [Example 16, 5-[(2S,6R)-2-[[4-[2-(2-hydroxyethyl)isoindolin-5-yl]piperazin-1-yl]methyl]-6-methyl-morpholin-4-yl]quinoline-8-carbonitrile], the IC50 was found to be 20 nM.

As for `C[C@@H]1CN(c2ccc(C#N)c3ncccc23)C[C@H](CN2CCN(c3ccc4c(c3)CNC4)C(CO)C2)O1` (stereo partly drawn) [Example 13, 5-[(2S,6R)-2-[[3-(hydroxymethyl)-4-isoindolin-5-yl-piperazin-1-yl]methyl]-6-methyl-morpholin-4-yl]quinoline-8-carbonitrile], the IC50 is 57 nM.
